# System: post-operative intra abdominal adhesions
# Assay: Post-operative intra abdominal adhesion formation in rat after laparotomy and musculoperitoneal incision
# Format: in vivo
# Protocol: Reduction in the occurrence of post-operative intra abdominal adhesions in rat by treatment with the mGluRgIa compound 2-methyl-6-(phenylethynyl)-pyridine (MPEP) at a dose of 12.5 mg/kg 12 male Sprague-Dawleys rats (Charles River Laboratories International, Sutzfeld, Germany), weighing between 250 to 300 g at the initiation of the procedure, were kept at a number of two individuals in one cage of type H3, lined with wood chips and housed in standardized conditions, at a constant room temperature (22° C.) with 12-hour light and dark cycles. All animals were provided free access to standard rodent chow, tap water, nesting material and libitum. All surgical procedures were performed under aseptic conditions in a dedicated surgical animal operating room. The animals were anesthetized using continuous inhalation isoflurane 1.5% to 4% in oxygen, numbered and randomly assigned to two groups of 6 individuals each: one treatment group and one vehicle group. After shaving and disinfection of the abdomen, a 50 mm long midline laparotomy was performed to gain access to the abdominal cavity. A 18 mm long sharp incision was then made through the musculoperitoneal tissue on the left lateral abdominal wall below the epigastric vessel parallel with the midline incision. The injury site was immediately closed with four single sutures places equidistantly using 5-0 polypropylene threat (Prolene; Ethicon, Johnson & Johnson, Somerville, N.J., USA). Just before closing the abdomen, the animals received either mGluRgIa (MPEP 45.35 mM in vehicle) at a dose of 12.5 mg MPEP/kg (treatment group), or vehicle (0.9% NaC1, 10 w % dimethylacetatamide, ˜50 mM hydrochloride, vehicle group), by injecting the solution into the abdominal cavity. The midline laparotomy was then closed in two layers continuous suture using 5-0 polypropylene for the abdomen and 4-0 for the skin. […] Formation of adhesions between the injury site and other uninjured structures within the abdominal cavity was macroscopically evaluated and quantified using the grading ‘0’ for absence of adhesions or ‘1’ for formed adhesions.
smiles,measurement,setting,value
"Cc1cccc(C#Cc2ccccc2)n1 [MPEP, 2-methyl-6-(phenylethynyl)-pyridine]",animals that had developed adhesions,"male Sprague-Dawley rats, 12.5 mg MPEP/kg injected into the abdominal cavity just before closing, evaluated macroscopically after one week, vehicle group 4 of 6",1 of the 6 animals
same,adhesions at the scar of the incision (picture of open abdomen),"treated rat no. 3 of Example 1, Pic. 1, 18 mm incision on left lateral abdominal wall",no visible adhesions
same,"adhesion grading per animal (six animals, one digit each)","treatment group, 12.5 mg MPEP/kg into the abdominal cavity, one week after surgery, vehicle group=111100",100000

# From patent publication US20140011826A1, “METABOTROPIC GLUTAMATE RECEPTOR GROUP I ANTAGONISTS FOR TREATMENT OF ABNORMAL UNION OF TISSUE” (priority 2011, published 2014)
